# Experimental data from patent publication EP0808303B1, “5-(4-SUBST.-PIPERIDINYL-1)-3-ARYL-PENTANOIC ACID DERIVATIVES AS TACHYKININ RECEPTOR ANTAGONIST” (AstraZeneca AB, priority 1995, dated 1996).
# What was measured:
# human NK1 receptor = target: T1, human NK1 receptor (Homo sapiens, UniProt P25103); test: SP Receptor Binding Assay (Test A); details: binding of SP at human NK1 receptor expressed in MEL cells
# T1 construct: expressed in transfected cells; host or cells: Mouse Erythroleukemia (MEL) cells
# From the text: SP Receptor Binding Assay (Test A)
# The human NK1 receptor was isolated and characterized as described in: B. Hopkins, et al. "Isolation and characterization of the human lung NK1 receptor cDNA" Biochem. Biophys. Res. Comm., 1991, 180, 1110-1117; and the NK1 receptor was expressed in Mouse Erythroleukemia (MEL) cells using a procedure similar to that described in Test B below.
# NK2 = target: T2, NK2 (Cavia porcellus, UniProt Q64077); test: Guinea Pig Trachea Assay: NK2 in vitro functional assay (Test D); type: cell-based; details: -log molar KB against agonist BANK
# T2 construct: The trachea are removed, trimmed of excess tissue (including removal of epithelium) and cut in spiral fashion; from tissue; host or cells: guinea pig trachea strips
# T2 sequence (Q64077 1-402): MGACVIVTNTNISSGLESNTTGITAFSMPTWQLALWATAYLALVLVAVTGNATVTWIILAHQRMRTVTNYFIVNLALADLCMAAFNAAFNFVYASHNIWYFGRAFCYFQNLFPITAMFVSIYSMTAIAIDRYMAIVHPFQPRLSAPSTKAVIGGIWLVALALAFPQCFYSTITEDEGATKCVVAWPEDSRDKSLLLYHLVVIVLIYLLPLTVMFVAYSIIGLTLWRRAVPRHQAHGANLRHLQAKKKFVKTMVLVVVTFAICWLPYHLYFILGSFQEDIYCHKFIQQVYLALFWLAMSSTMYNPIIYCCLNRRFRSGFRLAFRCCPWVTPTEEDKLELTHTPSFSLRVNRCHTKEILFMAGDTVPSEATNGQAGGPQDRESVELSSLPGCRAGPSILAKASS
# Method: Guinea Pig Trachea Assay: NK2 in vitro functional assay (Test D)
# Male guinea pigs are killed by a sharp blow to the back of the head followed by exsanguination. The trachea are removed, trimmed of excess tissue (including removal of epithelium) and cut in spiral fashion. Each longitudinally cut tracheal segment is suspended as a strip in a water-jacketed (37.5°C) tissue bath containing a physiological salt solution of the following composition (mM): NaCl, 119; KCl 4.6; CaCl2, 1.8; MgCl2, 0.5; NaH2PO4, 1; NaHCO3, 25; glucose, 11; and indomethacin, 0.005 (to inhibit cyclooxygenase); gassed continuously with 95% O2-%5 CO2. […] Contractile responses are measured on a Grass polygraph via Grass FT-03 force transducers. […]
# Potencies of the compounds are evaluated by calculating apparent dissociation constants (KB) for each concentration tested using the standard equation: KB = [antagonist]/(dose ratio-1) [formula] where dose ratio = antilog[(agonist -log molar EC50 without compound) - (agonist-log molar EC50 with compound)]. The KB values are converted to the negative logarithms and expressed as -log molar KB (i.e. pKB). […] The EC50 values are converted to the negative logarithms and expressed as -log molar EC50. Maximum contractile responses to BANK are determined by expressing the maximum response to BANK as a percentage of the initial contraction caused by capasacin.
# NK1 receptor = NK1 receptor (Oryctolagus cuniculus, UniProt G1SEI7); test: Rabbit Pulmonary Artery: NK1 in vitro functional assay (Test C); type: cell-based; details: -log molar KB against agonist ASMSP
# Method: Rabbit Pulmonary Artery: NK1 in vitro functional assay (Test C)
# Male New Zealand white rabbits are killed by lethal injection (Nembutal, 60 mg/kg into a cannulated ear vein). Heparin, 0.0025 ml/kg of a 1000 U/ml solution, is injected into the ear vein prior to nembutal in order to decrease blood coagulation. The left and right branches of the pulmonary artery are isolated from the rest of the lung tissue and cut in half to provide four ring segments from each animal. […] Changes in tension are measured on a Grass polygraph via Grass FT-03 force transducers. […]
# Potencies of the compounds are determined by calculating the apparent dissociation constants (KB) for each concentration tested using the standard equation: KB = [antagonist]/(dose ratio - 1) [formula] where dose ratio = antilog[(agonist-log molar EC50 without compound) - (agonist-log molar EC50 with compound)]. The KB values are converted to the negative logarithms and expressed as -log molar KB (i.e. pKB). […] The EC50 values are converted to negative logarithms and expressed as -log molar EC50. Maximum relaxation responses to ASMSP are determined by expressing the maximum response to the agonist as a percentage of the relaxation caused by papaverine.
# human NK2 receptor = target: T3, human NK2 receptor (Homo sapiens, UniProt P21452)
# T3 sequence (P21452 1-398): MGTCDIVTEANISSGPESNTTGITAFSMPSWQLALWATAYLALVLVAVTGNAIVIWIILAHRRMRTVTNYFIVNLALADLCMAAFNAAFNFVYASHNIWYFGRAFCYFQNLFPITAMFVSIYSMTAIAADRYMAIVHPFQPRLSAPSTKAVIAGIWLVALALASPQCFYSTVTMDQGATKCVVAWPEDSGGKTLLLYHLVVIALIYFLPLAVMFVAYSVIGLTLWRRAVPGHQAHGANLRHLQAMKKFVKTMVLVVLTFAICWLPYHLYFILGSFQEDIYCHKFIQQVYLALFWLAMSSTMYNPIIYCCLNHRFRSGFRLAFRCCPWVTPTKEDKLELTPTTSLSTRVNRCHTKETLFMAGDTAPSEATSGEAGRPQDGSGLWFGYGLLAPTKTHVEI
# Chain of NK1 receptor (G1SEI7 1-407): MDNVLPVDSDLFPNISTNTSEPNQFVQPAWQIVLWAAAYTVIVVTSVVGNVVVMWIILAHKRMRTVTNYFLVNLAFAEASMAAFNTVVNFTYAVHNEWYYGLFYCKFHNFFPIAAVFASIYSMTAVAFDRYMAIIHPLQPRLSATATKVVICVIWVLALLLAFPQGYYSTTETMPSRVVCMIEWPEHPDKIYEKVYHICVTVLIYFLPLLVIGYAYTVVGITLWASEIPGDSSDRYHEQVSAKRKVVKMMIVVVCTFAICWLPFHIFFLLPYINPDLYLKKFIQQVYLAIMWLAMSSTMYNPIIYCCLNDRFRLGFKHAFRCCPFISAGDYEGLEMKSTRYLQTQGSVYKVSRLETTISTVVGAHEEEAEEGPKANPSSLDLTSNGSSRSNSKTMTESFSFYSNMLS
# T1 sequence (P25103 whole entry): as the sequence (G1SEI7 1-407) above, with F12S, D189N, A369P, E371D, N376T, G386C, N391D, Y402S, M405V counted along it
structure (smiles),measurement,setting,value
"O=C(CC(CCN1CCC(O)(c2ccccc2)CC1)c1ccc(Cl)c(Cl)c1)NCc1ccccc1 (stereo not shown) [Example 1, N-Benzyl-5-(4-hydroxy-4-phenylpiperidino)-3-(3,4-dichlorophenyl)pentanamide]",Ki,human NK1 receptor,30 nM
same,Kb,NK2,794 nM
same,pKB,NK1 receptor,5.41
same,Ki,human NK2 receptor,15 nM
